{"source": "patent US8815935B2", "about": "“Inhibitors of protein prenyltransferases” (The Regents of the University of California, priority 2008, dated 2014)", "key": {"K562 cells": {"test_system": "K562 cells", "experiment": "K562 cell growth inhibition", "format": "cell-based, human", "details": "72 hours", "how_it_was_run": "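Human erythroleukemia K562 cells exposed to compound for 72 hours. Cell number measured with CCK-8 and viability expressed relative to the DMSO control.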"}, "[1]": {"test_system": "Rap1 geranylgeranylation in NIH3T3 cells", "experiment": "Unprenylated Rap1 immunoblot in NIH3T3 cells", "format": "cell-based", "details": "48 hours", "experimental": "The inhibition of GGTase-I catalyzed protein geranylgeranylation was assessed by examining the accumulation of unprenylated Rap1. To measure the level of unprenylated Rap1, cells were cultured in DMEM plus 10% (v/v) FBS overnight, and then DMSO or appropriate inhibitors were added. Incubation was continued for 48 hours. The cells were harvested and lysed in lysis buffer (20 mM Tris-HCl, pH 7.5, 150 mM NaCl, 1 mM EDTA, 1% NP-40 and 1× Protease Inhibitor Cocktail). Whole cell lysates of NIH3T3 cells were electrophoresed on a 12% SDS-PAGE, transferred to nitrocellulose membranes and immunoblotted with the antibody against unprenylated form of Rap1 (Santa Cruz Biotechnology catalog number sc-1482, goat), total-Rap1 (Santa Cruz: sc-65) or actin (Sigma: A4700). Actin was used as a loading control."}, "FTase": {"biological_target": "T1, FTase (Rattus norvegicus, UniProt Q02293+Q04631)", "T1 construct": "purchased JENA BIOSCIENCE", "experiment": "In vitro FTase assay (K-Ras4B substrate, [3H]FPP)", "format": "biochemical", "details": "concentration increased to 50,000 nM", "text": "To further characterize the pilot library, inhibitors of protein farnesyltransferase were identified. This was accomplished by using K-Ras4B as a substrate protein, tritiated farnesylpyrophosphate ([^3H]FPP) and protein farnesyltransferase. See Finegold, A. A., Johnson, D. I., Farnsworth, C. C., Gelb, M. H., Judd, S. R., Glomset, J. A. and Tamanoi, F. (1991) Protein geranylgeranyltransferase of Saccharomyces cerevisiae is specific for Cys-Xaa-Xaa-Leu motif and requires the CDC43 gene product but not the DPR1 gene product. Proc. Natl. Acad. Sci. USA 88, 4448-4452. […] On the other hand, the structure of the compounds P1-F11, P2-B7 and P2-E9 resemble those of GGTIs. The FTI P1-F11 resembles the GGTI P1-F10, while the FTI P2-B7 resembles the GGTI P2-C10. The FTI P2-E9 is similar to the GGTI P2-G3. Similarity of some GGTI and FTI compounds may point to common structural features between the two closely related enzymes. As described before, FTase and GGTase I have similar three-dimensional structures and a shared alpha subunit. On the other hand, FTase specific inhibitors may recognize a region(s) that is different between the two enzymes.\nExamples 2-8 illustrate assays of bioactivity. These methods are applicable to the compounds of the present invention having the particular linkers and scaffolds described herein, to determine their activity. […] Varying concentrations of the two compounds were added to each enzyme reaction. The FTase (protein farnesyltransferase) assay was carried out using K-Ras4B as a substrate protein, FTase (JENA Bioscience, San Diego, Calif.) and [3H]farnesyl pyrophosphate. Incubation was for 30 min at 37° C.\nGGTase-I and FTase activities were determined by following the incorporation of radiolabeled isoprenoid [^3H]-geranylgeranyl or [^3H]-farnesyl into substrate proteins. FTase or GGTase-I (50 nM) were used to initiate reactions containing 0.4 μM of [^3H]-FPP or 0.5 μM of [^3H]-GGPP and 2 μM of MBP-tagged substrates (K-Ras4B for FTase; RhoA for GGTase-I) in 20 μl of buffer {50 mM Tris-HCl (pH 7.5), 10 mM MgCl2, […] and 5 mM DTT}. Inhibitors were added at the indicated concentrations. The final DMSO concentration was 2.5% for all samples.\nReactions were carried out for 10 min at 30° C. The reaction mixture was spotted onto a filter paper, treated with 10% trichloroacetic acid (TCA) followed by ethanol and acetone washing. The filter was counted using a scintillation counter. Kinetic assays in which the GGPP concentration was varied employed fixed concentrations of GGTase-I and RhoA, and reactions were carried out for 5 min. Similarly, fixed concentrations of GGTase-I and GGPP were used when the amount of RhoA was varied."}, "GGTase-I": {"biological_target": "T2, GGTase-I (Rattus norvegicus, UniProt P53610+Q04631)", "T2 construct": "purchased JENA BIOSCIENCE", "experiment": "In vitro GGTase-I enzyme assay (IC50, kinetics)", "format": "biochemical", "how_it_was_run": "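Rat GGTase-I (50 nM) with 0.5 μM [3H]-GGPP and 2 μM MBP-RhoA in Tris-HCl pH 7.5, MgCl2, ZnCl2, DTT, 2.5% DMSO, 10 min at 30 °C; radiolabel incorporation by TCA filter binding and scintillation. Kinetics: 5 min reactions varying GGPP or RhoA at fixed other components.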"}, "RabGGTase": {"biological_target": "T3, RabGGTase (Rattus norvegicus, UniProt Q08602+Q08603)", "T3 construct": "purchased JENA BIOSCIENCE", "T3 sequence (Q08602 1-567)": "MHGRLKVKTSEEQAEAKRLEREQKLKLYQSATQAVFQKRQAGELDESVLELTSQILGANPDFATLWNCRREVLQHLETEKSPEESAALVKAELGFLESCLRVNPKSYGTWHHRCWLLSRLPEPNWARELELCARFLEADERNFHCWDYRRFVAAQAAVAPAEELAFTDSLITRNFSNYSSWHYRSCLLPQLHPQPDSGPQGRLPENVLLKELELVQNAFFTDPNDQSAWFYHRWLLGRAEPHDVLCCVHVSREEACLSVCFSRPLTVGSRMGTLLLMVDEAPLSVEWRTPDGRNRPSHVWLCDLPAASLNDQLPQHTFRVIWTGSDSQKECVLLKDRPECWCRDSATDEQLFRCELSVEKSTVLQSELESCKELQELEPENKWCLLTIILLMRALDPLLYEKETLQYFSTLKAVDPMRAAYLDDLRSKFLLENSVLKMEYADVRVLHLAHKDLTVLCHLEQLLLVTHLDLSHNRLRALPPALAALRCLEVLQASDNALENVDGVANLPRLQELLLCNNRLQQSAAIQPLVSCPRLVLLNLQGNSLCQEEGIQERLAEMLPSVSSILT", "T3 sequence (Q08603 1-331)": "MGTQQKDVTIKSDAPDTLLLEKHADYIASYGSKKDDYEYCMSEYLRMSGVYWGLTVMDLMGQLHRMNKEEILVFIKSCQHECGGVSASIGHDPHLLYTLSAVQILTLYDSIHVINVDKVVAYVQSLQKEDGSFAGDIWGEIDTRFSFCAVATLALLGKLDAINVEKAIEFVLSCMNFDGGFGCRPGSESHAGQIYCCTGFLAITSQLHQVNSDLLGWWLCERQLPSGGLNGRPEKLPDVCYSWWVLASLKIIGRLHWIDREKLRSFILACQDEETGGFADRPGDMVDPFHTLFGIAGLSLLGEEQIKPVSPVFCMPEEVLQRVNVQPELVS", "experiment": "In vitro RabGGTase (GGTase-II) assay with REP-1", "format": "biochemical", "details": "up to 10,000 nM", "experimental": "The GGTase-I assay was carried out using RhoA as a substrate protein, GGTase-I (JENA Bioscience) and [3H]geranylgeranyl pyrophosphate. Incubation was for 30 min at 37° C. GGTase-II (or RabGGTase) assay was carried out using YPTI as a substrate protein, GGTase-II (Calbiochem, San Diego, Calif.) plus REP1 (Calbiochem) and [3H]geranylgeranyl pyrophosphate. Incubation was for 30 min at 37° C. FIGS. 20D-20F show the three dimensional structure of GGTase I (D), FTsse (E) and GGTase II (F) which can be obtained from X-ray diffraction studies of protein crystals.\nFor RabGGTase assays, the reaction contained the following components in 20 μl; 0.625 μl of [^3H]-GGPP (0.7 μM), 25 nM RabGGTase, 0.6 μM REP-1, 0.6 μM purified Rab7 or Ypt1 protein, 40 mM HEPES (pH 7.5), 150 mM NaCl, 5 mM DTT, 3 mM MgCl2 and 0.3% CHAPS. Reactions were carried out for 20 min at 37° C. and the products were analyzed as described above for the GGTase-I reaction. Graphing and Michaelis-Menten analysis were performed using Prism version5 (GraphPad, San Diego Calif.)."}, "[2]": {"test_system": "H-Ras farnesylation in NIH3T3 cells", "experiment": "H-Ras mobility shift immunoblot in NIH3T3 cells", "format": "cell-based", "details": "48 hours", "experimental": "K562 cells were treated with modified compounds for 72 hours and then cell number was counted. IC50 values of cell viability relative to the DMSO were measured. […] Data represent the mean+/−S.D. of two measurements from two independent experiments. *, P<0.05 compared with the value for DMSO. […] Whole cell lysates from cells treated with DMSO, P5-H6, P61-A6, GGTI (GGTI-298), FTI (BMS-225975) or RabGGTI (P49-F6) for 48 hours were prepared and processed for immunoblot analysis using antibody against unprenylated form of Rap1 (C: upper panel), Total-Rap1 (C: middle panel), H-Ras (D: upper panel), Rab5b (E: upper panel) or actin (C, D, and E: lower panel). The immunoblots shown represent two independent experiments for each treatment.\nThis was examined by using a farnesylated protein H-Ras."}}, "note": "Entries after “also recorded” stand apart in the source; their conditions may differ.", "data": [{"smiles": "Cc1ccccc1S(=O)(=O)N1[C@@H](c2ccc(Cl)cc2)C(C(=O)O)=C[C@H]1C(C)(C)C", "note": "(relative stereo) [P5-H6]", "values": [{"measurement": "inhibition of proliferation of K562 cells", "setting": "K562 cells; FIG. 23", "value": "inhibit the growth of the K562 cells"}, {"measurement": "IC50", "setting": "K562 cells; Homo sapiens, K562, FIG. 36A, read-out: IC50, inhibition of proliferation of K562 cells", "value": 20, "unit": "µM"}, {"measurement": "appearance of the unprenylated (unprocessed) Rap1 band", "setting": "[1]", "value": "in a dose dependent manner; also recorded: inhibits Rap1 geranylgeranylation"}, {"measurement": "appearance of the unprenylated Rap1 band at 2.5 μM", "setting": "[1]; 2.5 μM", "value": "not seen"}, {"measurement": "inhibition of FTase activity", "setting": "FTase", "value": "no significant inhibition"}, {"measurement": "specificity among GGTase-I, FTase and GGTase-II", "setting": "GGTase-I; FIGS. 20A-20C, varying concentrations", "value": "specifically inhibit GGTase I"}, {"measurement": "Ki", "setting": "GGTase-I; Michaelis-Menten analysis", "value": "0.408 ± 0.032", "unit": "µM"}, {"measurement": "IC50", "setting": "GGTase-I; Tables 5, 14, read-out: In vitro (enzyme assay) IC50, GGTase I", "value": 0.466, "unit": "µM"}, {"measurement": "mode of GGTase-I inhibition with respect to GGPP", "setting": "GGTase-I; varying GGPP, fixed RhoA", "value": "do not compete with GGPP; also recorded: uncompetitive inhibitors"}, {"measurement": "mode of GGTase-I inhibition with respect to the protein substrate (RhoA)", "setting": "GGTase-I; varying RhoA, fixed GGPP", "value": "compete with a substrate protein; also recorded: competitive inhibitors"}, {"measurement": "inhibition of RabGGTase", "setting": "RabGGTase", "value": "little inhibition"}]}, {"smiles": "Cn1cncc1CN1C[C@@H](Cc2ccccc2)N(S(=O)(=O)c2cccs2)Cc2cc(C#N)ccc21", "note": "[BMS-225975]", "values": [{"measurement": "mobility shift of H-Ras (protein farnesylation)", "setting": "[2]", "value": "slowed the mobility"}]}]}
